Consider two molecules from the NIST ThermoML archive (doi:10.1021/je700177n).

Molecules are shown by their SMILES. Numbers after ± are expanded uncertainties.

A short description of data set [1]: wn = mass fraction of the nth substance listed. The conditions noted are these: 333.15 K, 101 kPa, Liquid.
Data set [2] is described as follows: refractive index (Na D-line) (dimensionless); wn = mass fraction of the nth substance listed. The conditions noted are these: 333.15 K, 101 kPa, Liquid.

Take `O=C[C@H](O)[C@@H](O)[C@H](O)[C@H](O)CO` [D-glucose] + O: the mass density in data set [1] (w1 = 0.1) turned out to be 1022 ± 2 kg/m3; in data set [1] (w1 = 0.2), 1063 ± 3 kg/m3; in data set [1] (w1 = 0.3), 1109 ± 3 kg/m3; in data set [1] (w1 = 0.4), 1157 ± 4 kg/m3; in data set [1] (w1 = 0.5), 1207 ± 5 kg/m3; in data set [1] (w1 = 0.6) it was 1268 ± 6 kg/m3. Also, the mass density in data set [1] (w1 = 0.7) is 1334 ± 7 kg/m3; in data set [1] (w1 = 0.8) it was 1376 ± 8 kg/m3. Further, the viscosity in data set [1] (w1 = 0.1) is on record as 29.4 mPa·s; in data set [1] (w1 = 0.2) it was 34.8 mPa·s; in data set [1] (w1 = 0.3), 43.8 mPa·s; in data set [1] (w1 = 0.4) it was 63 mPa·s; in data set [1] (w1 = 0.5) it was 107.1 mPa·s; in data set [1] (w1 = 0.6), 264.6 mPa·s. For the same molecule, the viscosity in data set [1] (w1 = 0.7) was found to be 409.2 mPa·s; in data set [1] (w1 = 0.8), 430.8 mPa·s. Also, the refractive index in data set [2] (w1 = 0.1) is listed as 1.341 ± 0.005; in data set [2] (w1 = 0.2), 1.359 ± 0.005; in data set [2] (w1 = 0.3), 1.375 ± 0.005; in data set [2] (w1 = 0.4) it was 1.395 ± 0.005; in data set [2] (w1 = 0.5), 1.416 ± 0.005; in data set [2] (w1 = 0.6) it was 1.432 ± 0.005. Also, the refractive index in data set [2] (w1 = 0.7) is reported as 1.455 ± 0.005; in data set [2] (w1 = 0.8), 1.477 ± 0.005; in data set [2] (w1 = 0.9) it was 1.506 ± 0.005.

As for `O` [water] + O=C[C@H](O)[C@@H](O)[C@H](O)[C@H](O)CO, in data set [2] (w2 = 0), the refractive index is reported as 1.326 ± 0.005.
